Marks after values point to notes of the source that are not given here.
Test system: patients with ALS
Experiment: Part 2: 4-week single-blind placebo washout period (withdrawal effects)
[1] = 150 mg during Part 1, placebo washout period
[2] = 300 mg during Part 1, placebo washout period

CCCN[C@@H]1CCc2nc(N)sc2C1 [dexpramipexole, (6R)-2-amino-4,5,6,7-tetrahydro-6-(propylamino)benzothiazole]
1 (4%)^b N (%): Subjects with a TEAE with action taken of study drug discontinued [2]
−2.7%: mean change from baseline in VC over 4 weeks [2]
5: Number of treatment-related TEAEs [1]
3 (13%) N (%): TEAE: Constipation [2] | TEAE: Fall [2] | TEAE: Gastrointestinal Disorders [2] | TEAE: General Disorders and Administration Site Conditions [2]
1 (4%) N (%): TEAE: Constipation [1] | TEAE: General Disorders and Administration Site Conditions [1] | TEAE: Muscle spasms [1] | TEAE: Muscular weakness [1] | TEAE: Nausea [1] | TEAE: Post lumbar puncture syndrome [1] | ALS-related TEAE: Dyspnoea [2] | ALS-related TEAE: Muscle spasms [2] | ALS-related TEAE: Musculoskeletal and Connective Tissue Disorders [2] | ALS-related TEAE: Respiratory, Thoracic and Mediastinal Disorders [2] | TEAE: Back pain [2] | TEAE: Diarrhoea [2] | TEAE: Dyspnoea [2] | TEAE: Muscle spasms [2] | TEAE: Post lumbar puncture syndrome [2] | TEAE: Respiratory, Thoracic and Mediastinal Disorders [2] | serious TEAE: Dyspnoea [2] | serious TEAE: Respiratory, Thoracic and Mediastinal Disorders [2] | ≧1 serious TEAE (including death) [2] | ≧1 severe TEAE [2]
5 (20%) N (%): TEAE: Gastrointestinal Disorders [1]
−1.7%: mean change from baseline in VC over 4 weeks [1]
2 (8%) N (%): TEAE: Cough [1] | TEAE: Diarrhoea [1] | TEAE: Psychiatric Disorders [1] | TEAE: Respiratory, Thoracic and Mediastinal Disorders [1] | ≧1 treatment-related TEAE [1] | ALS-related TEAE: Fall [2] | ALS-related TEAE: Injury, Poisoning and Procedural Complications [2] | TEAE: Musculoskeletal and Connective Tissue Disorders [2] | TEAE: Nausea [2] | TEAE: Pyrexia [2] | ≧1 treatment-related TEAE [2]
5 (21%) N (%): Subjects with ≧1 ALS-related TEAE [2]
1 subject: subjects who required a tracheostomy [2]
3.905 (1.9377) ×10^3/μL: Neutrophil Count, Mean (SD) (300 mg during Part 1, Baseline (Part 1: Week 12))
6 (25%) N (%): TEAE: Injury, Poisoning and Procedural Complications [2]
13 (52%) N (%): ≧1 TEAE [1]
−1.0: mean change from baseline in ALSFRS-R score over 4 weeks [1]
46: Number of TEAEs [2]
3: Number of treatment-related TEAEs [2]
7 (28%) N (%): Subjects with ≧1 ALS-related TEAE [1]
4 (16%) N (%): TEAE: Injury, Poisoning and Procedural Complications [1]
0 N (%): Subjects with a TEAE with action taken of study drug discontinued [1] | TEAE: Anxiety [1] | TEAE: Back pain [1] | TEAE: Dyspnoea [1] | TEAE: Pyrexia [1] | serious TEAE: Disease progression [1] | serious TEAE: Dyspnoea [1] | serious TEAE: General Disorders and Administration Site Conditions [1] | serious TEAE: Renal and Urinary Disorders [1] | serious TEAE: Respiratory, Thoracic and Mediastinal Disorders [1] | serious TEAE: Urethral obstruction [1] | serious TEAE: Urinary retention [1] | ≧1 TEAE with an outcome of death [1] | ≧1 serious TEAE (including death) [1] | ≧1 serious treatment-related TEAE [1] | ≧1 severe TEAE [1] | ALS-related TEAE: Disease progression [2] | ALS-related TEAE: General Disorders and Administration Site Conditions [2] | ALS-related TEAE: Muscular weakness [2] | TEAE: Anxiety [2] | TEAE: Cough [2] | TEAE: Muscular weakness [2] | TEAE: Psychiatric Disorders [2] | serious TEAE: Disease progression [2] | serious TEAE: General Disorders and Administration Site Conditions [2] | serious TEAE: Renal and Urinary Disorders [2] | serious TEAE: Urethral obstruction [2] | serious TEAE: Urinary retention [2] | ≧1 TEAE with an outcome of death [2] | ≧1 serious treatment-related TEAE [2]
11 (46%) N (%): ≧1 TEAE [2]
−1.5: mean change from baseline in ALSFRS-R score over 4 weeks [2]
3 (12%) N (%): TEAE: Fall [1] | TEAE: Musculoskeletal and Connective Tissue Disorders [1]
4.112 (1.1979) ×10^3/μL: Neutrophil Count, Mean (SD) (300 mg during Part 1, Part 2: Week 4 (end of placebo washout))
0.130 (1.3502) ×10^3/μL: Neutrophil Count, Mean Δ (SD) from baseline to Week 4 [2]
0: Number of serious TEAEs [1] | Number of severe TEAEs [1]
1: Number of serious TEAEs [2] | Number of severe TEAEs [2]
